Measurements as given in article PMC12504763, “Antiproliferation, 3D-multicellular spheroid and VEGFR-2 inhibitory properties of spiroindolin-2-ones with phosphonate function” (Scientific Reports, 2025).
Where “and” joins values, the source holds several entries; their conditions need not be identical. Equal entries are not always repeated. Where two headings read alike, the source gives them in different places.

Experiments:
[1] = tested on: HCT116 (colon) cancer cell line; test: 2D-monolayer antiproliferation (MTT) against HCT116; format: cell-based, human; conditions: for IC50: Homo sapiens, HCT-116; for SI (selectivity index) HCT116: IC50 of RPE1 normal cell/IC50 of HCT116
[2] = tested on: PaCa2 (pancreatic) cancer cell line; test: 2D-monolayer antiproliferation (MTT) against PaCa2; format: cell-based, human; conditions: for 1/(observed property): 1/observed IC50 (μM), PaCa2; for IC50: Homo sapiens, PaCa-2, MTT, 72 h incubation, PaCa2 pancreatic, read-out: IC50, μM ± SEM PaCa2; for SI (selectivity index) PaCa2: IC50 of RPE1 normal cell/IC50 of PaCa2
[3] = tested on: MCF7 (breast) cancer cell line; test: 2D-monolayer antiproliferation (MTT) against MCF7; format: cell-based, human; conditions: for IC50: Homo sapiens, MTT, 72 h incubation, MCF7 breast, read-out: IC50, μM ± SEM MCF7; for SI (selectivity index) MCF7: IC50 of RPE1 normal cell/IC50 of MCF7
[4] = tested on: A549 (lung) cancer cell line; test: 2D-monolayer antiproliferation (MTT) against A549; format: cell-based, human; conditions: for IC50: Homo sapiens, MTT, 72 h incubation, A549 lung, read-out: IC50, μM ± SEM A549; for SI (selectivity index) A549: IC50 of RPE1 normal cell/IC50 of A549
[5] = tested on: RPE1 (normal human immortalized retinal pigment epithelial cell line); test: cells; format: cell-based; conditions: Homo sapiens, RPE-1; MTT, normal RPE1 cell; read-out: IC50, μM ± SEM RPE1
VEGFR-2 [6] = target: T1, VEGFR-2 (Homo sapiens, UniProt P35968); test: cell-based; format: cell-based; conditions: for inhibition at 10 µM: HCT-116, HCT116; for VEGFR-2 pg/mL ± SEM HCT116: at 10 μM, control 317.80 ± 3.5
T1 construct: endogenous in cells; host or cells: HCT116, PaCa2, MCF7 (human cancer cell lines, ATCC origin)
T1 sequence (P35968 20-1356): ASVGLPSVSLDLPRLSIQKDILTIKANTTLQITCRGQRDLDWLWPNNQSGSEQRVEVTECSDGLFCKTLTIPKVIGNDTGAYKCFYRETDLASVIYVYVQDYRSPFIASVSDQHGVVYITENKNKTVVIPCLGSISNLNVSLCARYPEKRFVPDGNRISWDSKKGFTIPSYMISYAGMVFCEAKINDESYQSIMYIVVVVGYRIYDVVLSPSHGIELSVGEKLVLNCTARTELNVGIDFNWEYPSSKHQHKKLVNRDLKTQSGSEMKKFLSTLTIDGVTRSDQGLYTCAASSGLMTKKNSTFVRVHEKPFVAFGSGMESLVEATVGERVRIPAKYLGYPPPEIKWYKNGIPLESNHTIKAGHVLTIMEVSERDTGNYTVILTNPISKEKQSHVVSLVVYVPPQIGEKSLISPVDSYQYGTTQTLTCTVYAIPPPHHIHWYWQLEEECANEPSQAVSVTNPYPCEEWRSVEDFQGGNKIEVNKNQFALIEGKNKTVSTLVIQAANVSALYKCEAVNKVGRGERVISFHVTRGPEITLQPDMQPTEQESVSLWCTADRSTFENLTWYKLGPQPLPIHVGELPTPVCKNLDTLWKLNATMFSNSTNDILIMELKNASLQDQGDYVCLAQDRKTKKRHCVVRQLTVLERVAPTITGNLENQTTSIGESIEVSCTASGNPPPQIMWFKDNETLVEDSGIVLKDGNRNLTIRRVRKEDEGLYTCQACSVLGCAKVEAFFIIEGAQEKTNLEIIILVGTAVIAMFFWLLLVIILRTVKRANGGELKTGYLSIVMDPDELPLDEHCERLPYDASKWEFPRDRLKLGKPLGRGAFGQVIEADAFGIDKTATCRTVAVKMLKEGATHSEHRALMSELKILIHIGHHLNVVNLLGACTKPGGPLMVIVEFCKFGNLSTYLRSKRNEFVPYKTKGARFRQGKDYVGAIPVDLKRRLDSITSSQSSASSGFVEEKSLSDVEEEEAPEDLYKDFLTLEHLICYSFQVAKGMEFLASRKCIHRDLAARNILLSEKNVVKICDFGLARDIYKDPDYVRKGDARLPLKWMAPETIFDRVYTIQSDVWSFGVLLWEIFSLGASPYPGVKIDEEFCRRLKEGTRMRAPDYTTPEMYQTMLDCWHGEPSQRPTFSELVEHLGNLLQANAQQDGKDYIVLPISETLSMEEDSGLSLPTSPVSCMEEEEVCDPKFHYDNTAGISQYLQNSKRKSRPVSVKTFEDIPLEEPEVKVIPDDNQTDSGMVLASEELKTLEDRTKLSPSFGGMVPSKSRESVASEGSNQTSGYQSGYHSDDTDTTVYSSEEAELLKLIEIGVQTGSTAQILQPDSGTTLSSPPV

VEGFR-2 [7] = target: T1, VEGFR-2; test: cell-based; format: cell-based; conditions: for inhibition at 10 µM: PaCa-2, PaCa2; for VEGFR-2 pg/mL ± SEM PaCa2: at 10 μM, control 326.80 ± 1.9
VEGFR-2 [8] = target: T1, VEGFR-2; test: cell-based; format: cell-based; conditions: for inhibition at 10 µM: MCF7; for VEGFR-2 pg/mL ± SEM MCF7: at 10 μM, control 258.70 ± 2.3
COX-1 = target: T2, COX-1 (Ovis aries, UniProt P05979); test: biochemical; conditions: 3 replicates, read-out: % Inhibition of COX-1 ± SEM
T2 construct: purchased BioVision incorporated USA K548–100
T2 sequence (P05979 25-600): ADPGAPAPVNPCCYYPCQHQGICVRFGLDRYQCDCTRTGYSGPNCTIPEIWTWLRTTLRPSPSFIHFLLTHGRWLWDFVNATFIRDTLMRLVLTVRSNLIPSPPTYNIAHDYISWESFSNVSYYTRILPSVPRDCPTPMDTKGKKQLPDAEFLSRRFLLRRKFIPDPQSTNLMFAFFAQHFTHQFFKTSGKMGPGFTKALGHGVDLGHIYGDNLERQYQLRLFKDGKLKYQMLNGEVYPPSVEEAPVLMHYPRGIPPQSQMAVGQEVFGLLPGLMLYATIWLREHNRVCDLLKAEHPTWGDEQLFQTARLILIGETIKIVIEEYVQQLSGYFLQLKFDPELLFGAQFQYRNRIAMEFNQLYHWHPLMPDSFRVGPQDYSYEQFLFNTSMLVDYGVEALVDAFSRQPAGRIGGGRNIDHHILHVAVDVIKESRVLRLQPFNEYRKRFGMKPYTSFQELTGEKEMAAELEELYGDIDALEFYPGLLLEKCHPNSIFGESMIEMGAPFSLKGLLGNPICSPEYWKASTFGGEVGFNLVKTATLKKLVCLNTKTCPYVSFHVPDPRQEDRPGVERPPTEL

COX-2 = target: T3, COX-2 (Homo sapiens, UniProt P35354); test: biochemical; conditions: for inhibition at 10 µM: 3 replicates, read-out: % Inhibition of COX-2 ± SEM; for SI (selectivity index, COX-2/COX-1): at 10 μM
T3 construct: purchased BioVision incorporated USA K548–100
T3 sequence (P35354 18-604): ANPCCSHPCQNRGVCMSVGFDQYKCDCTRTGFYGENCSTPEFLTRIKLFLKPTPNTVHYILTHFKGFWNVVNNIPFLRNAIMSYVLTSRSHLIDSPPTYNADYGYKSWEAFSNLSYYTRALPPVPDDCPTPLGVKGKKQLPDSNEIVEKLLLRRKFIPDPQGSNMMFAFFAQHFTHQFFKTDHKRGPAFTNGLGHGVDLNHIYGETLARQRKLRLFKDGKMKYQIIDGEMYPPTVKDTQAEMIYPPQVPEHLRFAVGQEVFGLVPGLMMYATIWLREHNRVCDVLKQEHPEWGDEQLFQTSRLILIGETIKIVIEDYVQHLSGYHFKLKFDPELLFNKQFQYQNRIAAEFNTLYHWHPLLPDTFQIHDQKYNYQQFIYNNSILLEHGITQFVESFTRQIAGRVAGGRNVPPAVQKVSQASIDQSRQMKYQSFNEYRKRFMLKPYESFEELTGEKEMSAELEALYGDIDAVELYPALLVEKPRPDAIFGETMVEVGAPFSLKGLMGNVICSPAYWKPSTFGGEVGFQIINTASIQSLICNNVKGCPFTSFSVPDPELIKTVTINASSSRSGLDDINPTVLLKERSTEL

TNF-α [9] = test: TNF-α inhibitory properties (ELISA), HCT116 cell lysate; format: cell-based, human; conditions: at 10 μM; for TNF-α pg/mL (± SEM) HCT116: control 95.74 ± 0.5
TNF-α [10] = test: TNF-α inhibitory properties (ELISA), PaCa2 cell lysate; format: cell-based, human; conditions: at 10 μM; for TNF-α pg/mL (± SEM) PaCa2: control 111.8 ± 2.0
TNF-α [11] = test: TNF-α inhibitory properties (ELISA), MCF7 cell lysate; format: cell-based, human; conditions: at 10 μM; for TNF-α pg/mL (± SEM) MCF7: control 83.26 ± 1.1
CAM blood vessel network = test: Chick chorioallantoic membrane (CAM) anti-angiogenic assay; format: in vivo, chicken; conditions: 20 μL of 660 μM, 3 days
Experimental: CAM assay is an established xenograft technique for investigating the angiogenic effect due to the high resemblance of the human vascularized epithelium basement membrane with that of the chorioallantoic layer containing mainly type IV collagen[84]–[86].
Fig. 10 Images of light microscopy for anti-angiogenic evaluation of the tested compounds using CAM assay. […] The glass slide was placed on the surface of the CAM blood vessel network and left in an incubator at 37 °C for 3 days. The CAM blood vessel network was carefully cut and imaged under a light microscope (40 × magnification).
Fertilized white chicken eggs were incubated in a 37 °C incubator with constant humidity. On day 8, a small squared window was opened allowing the detachment of the growing CAM and shell. The opening was covered with an elastic bandage. […] The CAM was then sealed with a bandage and placed back in the incubator. CAMs were examined daily until day 12 (3 days), the vascularized membranes were then cut around the glass slide and fixed in 5% formalin. Images were taken with an Evos microscope at 40x and 100x magnification^9. Main blood vessel in the microscopic images of controls and samples were quantified by imageJ and analyzed for significant differences (n = 4).

HCT116 3D-spheroid = HCT116 3D-spheroid at 50 μM, relative to control
[12] = MTT, 72 h incubation, HCT116 colon, read-out: IC50, μM ± SEM HCT116
[13] = log of observed IC50 (μM), HCT116, read-out: Log(observed property) (converted)

Row | Structure (SMILES) | IC50 [1, 12] | IC50 [1, 13] | SI (selectivity index) HCT116 [1] | 1/(observed property) [2] | IC50 [2] | SI (selectivity index) PaCa2 [2] | IC50 [3] | SI (selectivity index) MCF7 [3] | IC50 [4] | SI (selectivity index) A549 [4] | IC50 [5] | inhibition at 10 µM (VEGFR-2 [6]) | VEGFR-2 pg/mL ± SEM HCT116 (VEGFR-2 [6]) | inhibition at 10 µM (VEGFR-2 [7]) | VEGFR-2 pg/mL ± SEM PaCa2 (VEGFR-2 [7]) | inhibition at 10 µM (VEGFR-2 [8]) | VEGFR-2 pg/mL ± SEM MCF7 (VEGFR-2 [8]) | inhibition at 10 µM (COX-1) | inhibition at 10 µM (COX-2) | TNF-α pg/mL (± SEM) HCT116 (TNF-α [9]) | other results
1 | CCOP(=O)(OCC)N1C/C(=C\c2cccs2)C(=O)C2(C1)C(c1cccs1)CN(C)C21C(=O)Nc2ccc(Cl)cc21 (centres unmarked) [Compound 17s, Diethyl (E)-[5-chloro-1′-methyl-2,4′′-dioxo-4′-(thiophen-2-yl)-5′′-(thiophen-2-ylmethylene)dispiro[indoline-3,2′-pyrrolidine-3′,3′′-piperidin]-1′′-yl]phosphonate] | 5.42 ± 0.288 µM | 5.42 µM | 1.9 | 0.163 | 6.13 ± 0.131 µM | 1.7 | 4.64 ± 0.068 µM | 2.2 | 8.1 ± 0.091 µM | 1.3 | 10.2 ± 0.545 µM | 83.1% | 53.80 ± 0.9 pg/mL | 91.9% | 26.50 ± 0.5 pg/mL | 81.6% | 47.60 ± 0.6 pg/mL | 53.8 ± 2.8% | 56.3 ± 2.3% | 86.57 ± 2.0 pg/mL | SI (selectivity index, COX-2/COX-1) (COX-2): 0.83; TNF-α % inhibition HCT116 (TNF-α [9]): 9.6%; TNF-α % inhibition PaCa2 (TNF-α [10]): 19.0%; TNF-α pg/mL (± SEM) PaCa2 (TNF-α [10]): 90.6 ± 2.8 pg/mL; TNF-α % inhibition MCF7 (TNF-α [11]): 1.9%; TNF-α pg/mL (± SEM) MCF7 (TNF-α [11]): 81.64 ± 3.7 pg/mL; % Inhibition of the blood vessels in CAM test (CAM blood vessel network): 86.7%; Diameter of blood vessel (μm ± SEM) (CAM blood vessel network; CAM test, control 459.7 ± 13.8): 61.3 ± 4.3 μm; %CT (± SEM), percentage cytotoxicity (HCT116 3D-spheroid): 77.9% and 77.9 ± 1.2%
2 | CCOP(=O)(OCC)N1C/C(=C\c2ccc(Cl)cc2)C(=O)C2(C1)C(c1ccc(Cl)cc1)CN(C)C21C(=O)Nc2ccc(C)cc21 (centres unmarked) [Compound 17k, Diethyl (E)-(5′′-(4-chlorobenzylidene)-4′-(4-chlorophenyl)-1′,5-dimethyl-2,4′′-dioxodispiro[indoline-3,2′-pyrrolidine-3′,3′′-piperidin]-1′′-yl)phosphonate] | 3.281 ± 0.022 µM | 3.28 µM | 2.5 | 0.1502 | 6.66 ± 0.095 µM | 1.2 | 4.98 ± 0.095 µM | 1.6 | 6.47 ± 0.385 µM | 1.3 | 8.15 ± 0.507 µM | 78.7% | 67.80 ± 1.3 pg/mL | 76.6% | 76.40 ± 0.9 pg/mL | 66.6% | 86.40 ± 0.5 pg/mL | 57.7 ± 1% | 55 ± 1.6% | 26.48 ± 1.5 pg/mL | TNF-α pg/mL (± SEM) PaCa2 (TNF-α [10]): 24.3 ± 1.4 pg/mL; TNF-α % inhibition MCF7 (TNF-α [11]): 72.6%; TNF-α pg/mL (± SEM) MCF7 (TNF-α [11]): 22.85 ± 1.8 pg/mL; %CT (± SEM), percentage cytotoxicity (HCT116 3D-spheroid): 53.1% and 53.1 ± 2.2%
3 | CCOP(=O)(OCC)N1C/C(=C\c2ccccc2)C(=O)C2(C1)C(c1ccccc1)CN(C)C21C(=O)Nc2ccc(C)cc21 (centres unmarked) [Compound 17d, Diethyl (E)-(5′′-benzylidene-1′,5-dimethyl-2,4′′-dioxo-4′-phenyldispiro[indoline-3,2′-pyrrolidine-3′,3′′-piperidin]-1′′-yl)phosphonate] | 9.278 ± 0.084 µM | 9.28 µM | 1.9 | 0.06423 | 15.6 ± 0.329 µM | 1.2 | 5.78 ± 0.13 µM | 3.1 | 14.6 ± 0.27 µM | 1.2 | 17.9 ± 0.945 µM | 72.5% | 87.40 ± 1.9 pg/mL | 83.7% | 53.42 ± 0.7 pg/mL | 71.9% | 72.80 ± 1.2 pg/mL | 51.8 ± 2.2% | 56.4 ± 1.9% | 94.80 ± 2.5 pg/mL | SI (selectivity index, COX-2/COX-1) (COX-2): 0.82; TNF-α % inhibition HCT116 (TNF-α [9]): 1.0%; TNF-α % inhibition PaCa2 (TNF-α [10]): 7.2%; TNF-α pg/mL (± SEM) PaCa2 (TNF-α [10]): 103.7 ± 4.2 pg/mL; TNF-α % inhibition MCF7 (TNF-α [11]): 0.1%; TNF-α pg/mL (± SEM) MCF7 (TNF-α [11]): 83.2 ± 4.5 pg/mL; %CT (± SEM), percentage cytotoxicity (HCT116 3D-spheroid): 64.1% and 64.1 ± 7.0%
